# Laboratory results from patent US11071701B2, “Medicament and cosmetic composition comprising resorcinol derivatives” (Symrise AG, priority 2016, dated 2021).
# How the values were obtained:
# [1] = tested on: Human epidermal melanoma cells A375; test: Visible light induced hyperpigmentation in vitro (melanin quantification); format: cell-based; conditions: for Inhibition vs. visible light induced / Melanin: visible light 480 J/cm2; for Melanin: treated 48 h prior to and past irradiation; for inhibition of visible light induced hyperpigmentation (in words): summary of Table 1
# Description: Human epidermal melanoma cells A375 were cultured in 6-well plates. The cells were exposed to visible light (480 J/cm2) with Hydrosun 750 equipped with KG1 filter. 48 h prior to and past to the irradiation the cells were treated with test compounds in non-cytotoxic concentrations. Melanocytes were lysed in a solution of NaOH. Melanin was quantified by measurement of absorbance at 405 nm and calculation based on a melanin standard curve.
# [2] = tested on: ex vivo human skin explants; test: Melanin formation after visible light irradiation on ex vivo human skin; conditions: visible light 480 J/cm2; for % of melanin: Fontana-Masson stain, image analysis
# Description: The below formulations were applied on ex vivo human skin explants from abdominal surgery of a donor with phototype IV (Fitzpatrick scale). 48 h after the formulations were removed with a cotton pad. Skin explants were exposed to visible light (480 J/cm2) with Hydrosun 750 equipped with KG1 filter. Formulations were reapplied afterwards. 48 h later skin sections were prepared and melanin was stained by Fontana-Masson stain. Quantification of melanin was done by image analysis.
compound,measurement,setting,value
"CCCCc1ccc(O)cc1O [4-Butylresorcinol, 4-butyl resorcinol]",Inhibition vs. visible light induced,[1]; concentration 0.0000316 %,58%
same,Melanin,[1]; concentration 0.0000316 %,2.3136 ± 0.6518 µg
same,Inhibition vs. visible light induced,[1]; concentration 0.0001000 %,100%
same,Melanin,[1]; concentration 0.0001000 %,1.8593 ± 0.5365 µg
same,Inhibition vs. visible light induced,[1]; concentration 0.0003160 %,183%
same,Melanin,[1]; concentration 0.0003160 %,0.9849 ± 0.0738 µg
same,inhibition of visible light induced hyperpigmentation (in words),[1],significantly inhibit
"CCCCCCc1ccc(O)cc1O [4-Hexylresorcinol, 4-hexyl resorcinol]",Inhibition vs. visible light induced,[1]; concentration 0.000005 %,91%
same,Melanin,[1]; concentration 0.000005 %,1.9616 ± 0.2899 µg
same,Inhibition vs. visible light induced,[1]; concentration 0.000015 %,102%
same,Melanin,[1]; concentration 0.000015 %,1.8407 ± 0.1988 µg
same,Inhibition vs. visible light induced,[1]; concentration 0.000050 %,166%
same,Melanin,[1]; concentration 0.000050 %,1.1668 ± 0.1312 µg
same,inhibition of visible light induced hyperpigmentation (in words),[1],significantly inhibit
"CC(c1ccccc1)c1ccc(O)cc1O (stereo not shown) [SymWhite ® 377, phenylethyl resorcinol]",% of melanin,[2]; 0.2% in formulation applied to skin explants (phototype IV),42.48 ± 2.6%
same,Inhibition vs Placebo,[2]; 0.2% in formulation applied to skin explants,67.5%
same,% of melanin,[2]; 0.5% in formulation applied to skin explants (phototype IV),25.91 ± 1.2%
same,Inhibition vs Placebo,[2]; 0.5% in formulation applied to skin explants,125.7%
same,Inhibition vs. visible light induced,[1]; concentration 0.000068 %,79%
same,Melanin,[1]; concentration 0.000068 %,0.5688 ± 0.0793 µg
same,Inhibition vs. visible light induced,[1]; concentration 0.000210 %,86%
same,Melanin,[1]; concentration 0.000210 %,0.5280 ± 0.0494 µg
same,Inhibition vs. visible light induced,[1]; concentration 0.000680 %,100%
same,Melanin,[1]; concentration 0.000680 %,0.4598 ± 0.1024 µg
same,inhibition of visible light induced hyperpigmentation (in words),[1],significantly inhibit
